For 15 compounds, TGI results are on record in PubChem BioAssay (NCI).

Common to all, as to assay: inhibition of tumour cell growth, NCI panel, 48 h
For test [1], the system named is EKVX NSCLC.
The subject of test [2] is A549 NSCLC.
Test [3] deals with MDA-MB-435.
For test [4], the system named is MALME-3M melanoma.
Test [5] concerns SF-295 CNS.
In test [6] the test system is RXF 393 renal.
The test system of test [7] is SR leukemia.
Test [8] concerns CCRF-CEM leukemia.
Test [9] relates to NCI-H460 lung.
Test [10] relates to SK-MEL-5 melanoma.
The test system of test [11] is SK-MEL-28 melanoma.
The subject of test [12] is HS 578T breast.
In test [13] the test system is IGROV1 ovarian.
Test [14] has as its system T-47D breast.
Test [15] has as its system NCI-H23 lung.
For test [16], the system named is SK-OV-3 ovarian.
The test system of test [17] is TK-10 renal.
Test [18] concerns HOP-92 NSCLC.
In test [19] the test system is HCT-116 colon.

Molecules are shown by their SMILES.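 Growth conditions: 96-well plates. Treatment: test compound, 48 hours, 5 concentrations. Analysis: linear interpolation between bracketing concentrations; unreached endpoints set to highest concentration. The concentration for full growth arrest is given as TGI.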

Regarding `O=C1NC(=O)/C(=C/c2ccc(S(=O)(=O)N/N=C\C(O)C(O)C(O)C(O)CO)cc2)N1` (stereo unspecified), the TGI in test [1], in test [2], in test [3], in [4], in test [5] and in test [6] was > 100 µM throughout. Further, the TGI in test [7], in test [8], in [9], in test [10], in [11] and in test [12] was > 100 µM each time. For the same compound, the TGI in [13], in test [14], in test [15], in [16], in [17] and in test [18] was > 100 µM in each case. In test [19], the TGI is > 100 µM.

For the compound `CC(C)C(C/C=C1/CC(CO)(COC(=O)c2ccccc2)OC1=O)C(C)C` (stereo unspecified), the TGI stood at 35.9 µM in test [1]; 26.5 µM in test [2]; 95.5 µM in test [3]; 25.1 µM in test [4]; 25.7 µM in test [5]; 31.2 µM in test [6]. The TGI in [7] was > 100 µM; in test [8], 43.5 µM; in test [9], 45.7 µM; in test [10], 21.3 µM; in test [11] it was 27.8 µM; in test [12], 24.3 µM. In addition, the TGI in test [13] was 38.2 µM; in [14], 31.2 µM; in [15] it was 34.7 µM; in [16], > 100 µM; in [17] it was 32.3 µM; in test [18], 35.8 µM. The TGI in test [19] amounted to 29.7 µM.

For the compound `COc1ccc(/C=C2\Sc3nnc(CNc4ccc(Cl)cc4)n3N=C2c2cc(F)c(Cl)cc2Cl)cc1OC`, the TGI in test [1] is > 100 µM; in test [3], > 100 µM; in test [5], > 100 µM; in test [6], 74.2 µM; in [7], > 100 µM; in test [8], > 100 µM. Moreover, the TGI in test [9], in test [10], in [11], in [12], in [13] and in test [14] was > 100 µM in each case. For the same compound, the TGI in test [15], in test [16], in test [17], in [18] and in [19] was > 100 µM each time.

Take `O=c1c2cc(I)ccc2nc(SCc2n[nH]c(=S)o2)n1Cc1ccccc1`: the TGI was found to be 40.8 µM in test [1]; 48.4 µM in test [2]; 44.4 µM in test [3]; 34.8 µM in [4]; 40 µM in [5]; 10.9 µM in test [6]. Further, the TGI in test [7] was > 100 µM; in [8], 43.8 µM; in [9] it was 39.5 µM; in test [10] it was 26.2 µM; in [11], 32.3 µM; in [12], 44.3 µM. Further, the TGI in [13] was 35.3 µM; in test [14] it was 45.4 µM; in [15], 34.2 µM; in test [16] it was 62.3 µM; in test [17], 37.7 µM; in test [18], 27.9 µM. This compound also returned a TGI in test [19] of 29.4 µM.

Regarding `O=C1N[C@@H]2c3c(Br)sc(Br)c3C(=O)[C@@H]2O1`, the TGI in test [1] was 4.44 µM; in test [2], 32.6 µM; in test [3], 6.33 µM; in test [4], 7.63 µM; in test [5], 32.5 µM; in test [6] it was 4.95 µM. The TGI in test [7] worked out at 4.03 µM; in test [8], 3.94 µM; in test [9], 27.7 µM; in test [10] it was 18.4 µM; in [11] it was 6.64 µM; in [12], 78.7 µM. Moreover, the TGI in test [13] came out at 11.6 µM; in test [14], 27 µM; in [15] it was 7.35 µM; in test [16], 32.7 µM; in test [17], 10.5 µM; in test [18], 11.8 µM. The compound further had a TGI in test [19] of 2.78 µM.

Regarding `O=C1c2ccccc2CC12Cc1ccccc1C2`, the TGI in test [1] was 78.3 µM; in test [2], > 100 µM; in [3], > 100 µM; in test [4], > 100 µM; in test [5], > 100 µM; in test [6] it was 70.1 µM. Further, the TGI in test [7] was 83.5 µM; in test [8] it was > 100 µM; in [9] it was > 100 µM; in [10], 56.1 µM; in [11], > 100 µM; in test [12] it was > 100 µM. The TGI in test [13] was > 100 µM; in test [14], > 100 µM; in test [15], > 100 µM; in [16], > 100 µM; in test [17] it was 97.4 µM; in test [18] it was 91.9 µM. In addition, the TGI in test [19] was > 100 µM.

Take `C=C(C)C(O)C(O)C[C@@H](C)C1CC[C@]23C[C@]12CCC1[C@@]2(C)CCC(OC(C)=O)C(C)(C)C2CC(OC2OC(CO)C(O)C(O)C2O)[C@]13C` (stereo partly specified): the TGI in test [1] was > 100 µM; in [2], > 100 µM; in [3], 31.7 µM; in test [4], 32.3 µM; in test [5], 36.7 µM; in test [6], 29.3 µM. Further, the TGI is 36.3 µM in test [7]; 31.2 µM in [8]; 34.5 µM in test [9]; 33.1 µM in [10]; 37.1 µM in test [11]; 39.6 µM in [12]. Besides, the TGI in test [13] is 28.8 µM; in test [14], 31.6 µM; in test [15], 41.6 µM; in [16] it was 45.7 µM; in test [17] it was 56.2 µM; in test [18] it was 25.7 µM. In [19], this compound returned a TGI of 29.5 µM.

As for `CCCCCCOc1ccc(C(=O)N(C)O)cc1`, the TGI in [1] is > 100 µM; in [2], 56.6 µM; in test [3], 98.1 µM; in test [4] it was 57.3 µM; in test [5], > 62.4 µM; in test [6] it was 97.6 µM. The TGI in test [7] was 39.6 µM; in test [8], 23.5 µM; in test [9], 30 µM; in test [10] it was 62.5 µM; in test [11], > 100 µM; in test [12], > 100 µM. Further, the TGI in test [13] is > 100 µM; in test [14], 99.4 µM; in test [15] it was 65.6 µM; in [16] it was > 97.1 µM; in test [17], > 100 µM; in test [18] it was > 100 µM. For the same compound, the TGI in test [19] was > 100 µM.

As for `CCN(CC)/[N+]([O-])=N/OCOC(C)=O`, the TGI in [1], in test [2], in test [3], in [4], in [5] and in [6] was > 100 µM each time. Also, the TGI in test [7], in test [8], in [9], in test [10], in test [11] and in test [12] was > 100 µM each time. The TGI in test [13], in [14], in test [15], in test [16], in test [17] and in [18] was > 100 µM in each case. Moreover, the TGI in test [19] is > 100 µM.

Regarding `COc1ccc2c(c1)CCCN2S(=O)(=O)c1ccccc1[N+](=O)[O-]`, the TGI in [1] is > 91.9 µM; in test [2], > 100 µM; in [3], 22 µM; in [4] it was > 86.3 µM; in test [5], > 100 µM; in test [6] it was 55.9 µM. Also, the TGI was > 78.8 µM in test [7]; 80.9 µM in [8]; > 87.9 µM in [9]; 62.2 µM in test [10]; > 100 µM in [11]; > 97.1 µM in test [12]. Besides, the TGI in [13] was > 100 µM; in [14], > 87.8 µM; in test [15], > 100 µM; in [16] it was > 77 µM; in [17], 97.1 µM; in test [18], 97.8 µM. In [19], this compound gave a TGI of 88.9 µM.

Turning to `CC(=O)c1cccc(NC(=O)C(=O)C(c2cnc3ccc([N+](=O)[O-])cc3n2)[N+](=O)[O-])c1` (stereo unspecified), the TGI in test [1], in test [3], in [4], in test [5], in test [6] and in test [7] was > 100 µM each time. For the same compound, the TGI in [8], in [9], in test [11], in test [12], in test [13] and in test [14] was > 100 µM each time. For the same compound, the TGI in [15], in [16], in test [17], in test [18] and in test [19] was > 100 µM in each case.

On to `O=C(CC(=O)N1N=C(N(c2ccccc2)c2ccccc2)CC1c1ccccc1)Nc1ccc(Cl)cc1` (stereo unspecified), for which the TGI in test [1], in [2], in test [3], in [5], in test [6] and in test [7] was > 100 µM in each case. For the same compound, the TGI in [8], in test [9], in test [10], in test [11], in test [12] and in [13] was > 100 µM throughout. For the same compound, the TGI in test [14], in test [15], in test [16], in test [17], in test [18] and in [19] was > 100 µM throughout.

As for `COc1ccc(/C=C2/NC(=S)N=C2Cl)cc1`, the TGI in test [1], in test [2], in test [3], in [4], in [5] and in test [6] was > 100 µM throughout. In addition, the TGI in test [7], in test [8], in test [10], in test [11], in test [12] and in test [13] was > 100 µM in each case. The TGI in test [14], in test [15], in test [16], in [17], in [18] and in [19] was > 100 µM throughout.

With `Fc1cccc(Cl)c1C1SCc2nc3cc4ccccc4cc3n21` (stereo unspecified), the TGI in test [1], in [2], in [3], in test [4], in test [5] and in test [6] was > 100 µM throughout. In addition, the TGI in test [7], in test [8], in test [11], in [12], in test [13] and in test [14] was > 100 µM in each case. Besides, the TGI is > 100 µM in [15]; > 100 µM in test [16]; > 100 µM in test [17]; 72.3 µM in test [18]; > 100 µM in test [19].

Consider `CN(C)C=NCCN1CCOCC1`, for which the TGI in test [1], in [2], in [3], in [4], in test [5] and in test [6] was > 100 µM throughout. The TGI in test [7], in [8], in [10], in test [11], in [12] and in test [13] was > 100 µM throughout. The TGI in test [14], in test [15], in [16], in [17], in test [18] and in [19] was > 100 µM in each case.
